Source: patent US9642889B2, “Macrocyclic inhibitors of Flaviviridae viruses” (Selcia Limited, priority 2012, dated 2017)
Where two headings read alike, the source gives them in different places.

How the values were obtained:
cyclophilin A = cyclophilin A (Homo sapiens, UniProt P62937); test: Cyclophilin A TR-FRET competitive binding assay; details: competition with CsA-Cy5 for His-tagged CypA, two-hour incubation
Procedure: Cyclophilin A TR-FRET Competitive Binding Assay
Inhibitor potency was measured using a competitive binding assay with a time-resolved fluorescence resonance energy transfer (TR-FRET) readout. […] An IC50 value was calculated using a four-parameter logistic fit.

[1] = system: Huh-7 HCV replicon cells (1b replicon); test: anti-HCV activity in Huh-7 cell line harboring a HCV replicon (luciferase readout); assay type: cell-based; details: for Replicon 1b % inhibition at 1 μM: 1b replicon, 1 μM compound
[2] = Hepatitis C virus, Huh-7, 72 h, inhibition of viral replication, Huh-7 HCV replicon cells, 3 days, read-out: EC50
[3] = Hepatitis C virus, Huh-7, read-out: Replicon 1b % inhibition at 1 μM, 1b replicon, 1 μM compound
[4] = inhibition of viral replication, Huh-7 HCV replicon cells, 3 days, read-out: EC50

cyclophilin A, sequence (P62937 whole entry, species assumed): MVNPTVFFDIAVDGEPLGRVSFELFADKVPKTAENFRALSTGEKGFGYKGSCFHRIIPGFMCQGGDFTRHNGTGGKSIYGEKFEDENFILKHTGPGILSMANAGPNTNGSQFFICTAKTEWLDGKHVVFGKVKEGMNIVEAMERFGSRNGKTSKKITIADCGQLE

Row | SMILES | IC50 (cyclophilin A) [nM] | EC50 [1, 2] [nM] | inhibition at 1 µM [1, 3] [%] | other results
1 | CC(=O)CC[C@@H]1C/C=C/c2cc3cc(ccc3cn2)[C@@H](C)NC(=O)[C@@H]2CCCN(N2)C(=O)[C@H](C)NC(=O)[C@H](C(C)C)OC1=O (mixture of isomers) [Compound 14] | < 100 | < 1000 | 100 | 
2 | CC(CC[C@@H]1C/C=C/c2cc3cc(ccc3cn2)[C@@H](C)NC(=O)[C@@H]2CCCN(N2)C(=O)[C@H](C)NC(=O)[C@H](C(C)C)OC1=O)=NOCCN1CCOCC1 (mixture of isomers) [Compound 15] | < 100 | < 1000 | 98 | 
3 | CC(C)[C@@H]1OC(=O)[C@H](CCC(C)N(C)C)C/C=C/c2cc3cc(ccc3cn2)[C@@H](C)NC(=O)[C@@H]2CCCN(N2)C(=O)[C@H](C)NC1=O (mixture of isomers) [Compound 16] | < 100 | 1100 to 10000 | 20 | 
4 | CC(C)[C@@H]1OC(=O)C2(/C=C/c3ccc4ccc(nc4c3)[C@@H](C)NC(=O)[C@@H]3CCCN(N3)C(=O)[C@H](C)NC1=O)CCCCO2 (mixture of isomers) [Compound 49] | < 100 | < 1000 | 100 | 
5 | CC(C)[C@@H]1OC(=O)C2(/C=C/c3ccc4ccc(nc4c3)[C@@H](C)NC(=O)[C@]3(C)CCCN(N3)C(=O)[C@H](C)NC1=O)CCC(O)CC2 (mixture of isomers) [Compound 94] | < 100 | < 1000 | 94 | 
6 | CC1/C=C/c2ccc3ccc(nc3c2)[C@@H](C)OC(=O)[C@@H]2CCCN(N2)C(=O)[C@H](C)NC(=O)[C@H](C(C)C)OC1 (single isomer, unassigned) [Compound 27] | < 100 | < 1000 | 92 | 
7 | CC1/C=C/c2ccc3ccc(nc3c2)[C@@H](C)OC(=O)[C@@H]2CCCN(N2)C(=O)[C@H](C)NC(=O)[C@H](C(C)C)OC1 (single isomer, unassigned) [Compound 28] | < 100 |  |  | Replicon 1b % inhibition at 1 μM ([1]; 1 µM): 99%; EC50 [1, 4]: < 1000 nM
8 | CC1/C=C/c2ccc3ccc(nc3c2)[C@@H](C)NC(=O)[C@@H]2CCCN(N2)C(=O)[C@H](C)NC(=O)[C@H](C(C)C)OC1 (single isomer, unassigned) [Compound 34] | < 100 | < 1000 | 91 | 
9 | CC1/C=C/c2ccc3ccc(nc3c2)[C@@H](C)NC(=O)[C@@H]2CCCN(N2)C(=O)[C@H](C)NC(=O)[C@H](C(C)C)OC1 (single isomer, unassigned) [Compound 35] | < 100 | < 1000 | 88 | 
10 | COCC1NC(=O)C(C(C)C)OC(=O)C(C)(C)C=Cc2ccc3ccc(nc3c2)C(C)NC(=O)C2CCCN(N2)C1=O (single isomer, unassigned) [Compound 39] | 101 to 1000 | 1100 to 10000 | 16 | 
11 | CC(C)[C@@H]1OC(=O)C2(/C=C/c3ccc4ccc(nc4c3)[C@@H](C)NC(=O)[C@@H]3CCCN(N3)C(=O)[C@H](C)NC1=O)COCCO2 (single isomer, unassigned) [Compound 43] | < 100 |  |  | Replicon 1b % inhibition at 1 μM [1]: 99%; EC50 [1, 4]: < 1000 nM
12 | CC(C)[C@@H]1OC(=O)C2(/C=C/c3ccc4ccc(nc4c3)[C@@H](C)NC(=O)[C@@H]3CCCN(N3)C(=O)[C@H](C)NC1=O)CN(C(=O)OC(C)(C)C)CCO2 (single isomer, unassigned) [Compound 45] | < 100 |  |  | 
13 | CC(C)[C@@H]1OC(=O)C2(/C=C/c3ccc4ccc(nc4c3)[C@@H](C)NC(=O)[C@@H]3CCCN(N3)C(=O)[C@H](C)NC1=O)CCCOC2 (single isomer, unassigned) [Compound 50] | < 100 | < 1000 | 100 | 
14 | CC(C)[C@@H]1OC(=O)C2(/C=C/c3ccc4ccc(nc4c3)[C@@H](C)NC(=O)[C@@H]3CCCN(N3)C(=O)[C@H](C)NC1=O)CCCOC2 (single isomer, unassigned) [Compound 51] | < 100 | < 1000 | 100 | 
15 | CC1NC(=O)C(C(C)C)OC(=O)C2(/C=C/c3ccc4ccc(nc4c3)C(C)NC(=O)C3CCCN(N3)C1=O)CCC(O)CC2 (single isomer, unassigned) [Compound 74] |  | < 1000 |  | Replicon 1b % inhibition at 1 μM ([1]; 1 µM): 100%
16 | CC1NC(=O)C(C(C)C)OC(=O)C2(/C=C/c3ccc4ccc(nc4c3)C(C)NC(=O)C3CCCN(N3)C1=O)CCC(O)CC2 (single isomer, unassigned) [Compound 75] |  |  |  | Replicon 1b % inhibition at 1 μM ([1]; 1 µM): 100%; EC50 [1, 4]: < 1000 nM
17 | CC1NC(=O)C(C(C)C)OC(=O)C2(/C=C/c3ccc4ccc(nc4c3)C(C)NC(=O)C3CCCN(N3)C1=O)CCC(O)CC2 (single isomer, unassigned) [Compound 76] |  |  |  | Replicon 1b % inhibition at 1 μM ([1]; 1 µM): 69%; EC50 [1, 4]: < 1000 nM
18 | CC1NC(=O)C(C(C)C)OC(=O)C2(/C=C/c3ccc4ccc(nc4c3)C(C)NC(=O)C3CCCN(N3)C1=O)CCC(O)CC2 (single isomer, unassigned) [Compound 77] |  |  |  | Replicon 1b % inhibition at 1 μM ([1]; 1 µM): 56%; EC50 [1, 4]: < 1000 nM
19 | CC(C)[C@@H]1OC(=O)C2(/C=C/c3ccc4ccc(nc4c3)[C@@H](C)NC(=O)[C@@H]3CCCN(N3)C(=O)[C@H](C)NC1=O)COC(C)(C)CO2 (single isomer, unassigned) [Compound 100] | < 100 |  |  | Replicon 1b % inhibition at 1 μM [1]: 100%; EC50 [1, 4]: < 1000 nM

Row | SMILES | IC50 (cyclophilin A) [nM] | EC50 [1, 2] [nM] | inhibition at 1 µM [1, 3] [%] | other results
20 | CC1NC(=O)C(C2CC2)OC(=O)C2(C=Cc3ccc4ccc(nc4c3)C(C)NC(=O)C3CCCN(N3)C1=O)CCC(O)C2 (single isomer, unassigned) [Compound 103] | < 100 | < 1000 |  | Replicon 1b % inhibition at 1 μM ([1]; 1 µM): 90%
21 | CC1NC(=O)C(C2CC2)OC(=O)C2(C=Cc3ccc4ccc(nc4c3)C(C)NC(=O)C3CCCN(N3)C1=O)CCC(O)C2 (single isomer, unassigned) [Compound 104] | < 100 |  |  | Replicon 1b % inhibition at 1 μM ([1]; 1 µM): 56%; EC50 [1, 4]: < 1000 nM
22 | CC1NC(=O)C(C2CC2)OC(=O)C2(C=Cc3ccc4ccc(nc4c3)C(C)NC(=O)C3CCCN(N3)C1=O)CCC(O)C2 (single isomer, unassigned) [Compound 105] | 101 to 1000 |  |  | Replicon 1b % inhibition at 1 μM ([1]; 1 µM): 2%; EC50 [1, 4]: 1100 to 10000 nM
23 | CO[C@@H]1CC/C=C/c2cccc(c2)[C@@H](C)NC(=O)[C@@H]2CCCN(N2)C(=O)[C@H](C)NC(=O)[C@H](C(C)C)OC(=O)[C@@H]1C [Compound 1] | < 100 | < 1000 | 97 | 
24 | CO[C@@H]1/C=C/c2cc3cc(ccc3cn2)[C@@H](C)NC(=O)[C@@H]2CCCN(N2)C(=O)[C@H](C)NC(=O)[C@H](C(C)C)OC(=O)[C@@H]1C [Compound 2] | < 100 | < 1000 | 98 | 
25 | CC(C)[C@@H]1OC(=O)C/C=C/c2cc3cc(ccc3cn2)[C@@H](C)NC(=O)[C@@H]2CCCN(N2)C(=O)[C@H](C)NC1=O [Compound 3] | < 100 | < 1000 | 89 | 
26 | CC(C)[C@@H]1OC(=O)C(C)(C)/C=C/c2ccc3ccc(nc3c2)[C@@H](C)OC(=O)[C@@H]2CCCN(N2)C(=O)[C@H](C)NC1=O [Compound 19] | < 100 |  |  | 
27 | CC(C)[C@H]1C(=O)N[C@@H](C)C(=O)N2CCC[C@H](N2)C(=O)O[C@H](C)c2ccc3cnc(cc3c2)/C=C/C(C)(C)C(=O)N1C [Compound 22] | < 100 |  |  | 
28 | CC(C)[C@@H]1OC(=O)C(C)(C)/C=C/c2ccc3ccc(nc3c2)CN(C)C(=O)[C@@H]2CCCN(N2)C(=O)[C@H](C)NC1=O [Compound 33] | < 100 |  |  | 
29 | COC[C@@]1(C)/C=C/c2ccc3ccc(nc3c2)[C@@H](C)NC(=O)[C@@H]2CCCN(N2)C(=O)[C@H](C)NC(=O)[C@H](C(C)C)OC1=O [Compound 36] | < 100 |  |  | 
30 | CC(C)[C@@H]1OC(=O)C(C)(C)/C=C/c2ccc3ccc(nc3c2)CNC(=O)[C@@H]2CCCN(N2)C(=O)[C@H](C)NC1=O [Compound 37] | < 100 |  |  | 
31 | COC[C@@]1(C)/C=C/c2ccc3ccc(nc3c2)[C@@H](C)N(C)C(=O)[C@@H]2CCCN(N2)C(=O)[C@H](C)NC(=O)[C@H](C(C)C)OC1=O [Compound 38] | < 100 |  |  | 
32 | CC(C)[C@@H]1OC(=O)C2(/C=C/c3ccc4ccc(nc4c3)[C@@H](C)NC(=O)[C@@H]3CCCN(N3)C(=O)[C@H](C)NC1=O)COCCOC2 [Compound 57] |  | < 1000 | 100 | 
33 | COC[C@]1(C)/C=C/c2ccc3ccc(nc3c2)[C@@H](C)NC(=O)[C@@H]2CCCN(N2)C(=O)[C@H](C)NC(=O)[C@H](C(C)C)OC1=O [Compound 58] | < 100 |  |  | 
34 | C[C@@H]1NC(=O)[C@H](C2CCC2)OC(=O)C2(/C=C/c3ccc4ccc(nc4c3)[C@@H](C)NC(=O)[C@@H]3CCCN(N3)C1=O)COCOC2 [Compound 64] |  |  |  | EC50 ([1]; Hepatitis C virus, Huh-7, 72 h): < 1000 nM; inhibition at 1 µM ([1]; Hepatitis C virus, Huh-7, read-out: Replicon 1b % inhibition at 1 μM): 100%
35 | CC(C)[C@@H]1OC(=O)C(C)(C)/C=C/c2cc3cc(ccc3cn2)[C@@H](C)NC(=O)[C@@H]2CCCN(N2)C(=O)[C@H](C)NC1=O [Compound 69] |  | < 1000 | 100 | 
36 | CC(C)[C@@H]1OC(=O)C2(/C=C/c3ccc4ccc(nc4c3)[C@@H](C)NC(=O)[C@@H]3CCCN(N3)C(=O)[C@H](C)NC1=O)CCOCC2 [Compound 88] |  | < 1000 | 100 | 
37 | COC1CCC2(/C=C/c3ccc4ccc(nc4c3)[C@@H](C)NC(=O)[C@@H]3CCCN(N3)C(=O)[C@H](C)NC(=O)[C@H](C(C)C)OC2=O)CC1 (stereo partly shown) [Compound 92] |  | < 1000 | 100 | 
38 | CC(C)[C@@H]1OC(=O)C2(/C=C/c3ccc4ccc(nc4c3)[C@@H](C)NC(=O)[C@@H]3CCCN(N3)C(=O)[C@H](C)NC1=O)CCS(=O)(=O)CC2 [Compound 106] |  | < 1000 | 95 | 
